In patent US7169930B2, “Analogs of epothilone” (The Scripps Research Institute, priority 2002, dated 2007):

Columns and labels:
[1] = target: porcine tubulin (Sus scrofa, UniProt P02554); details: data from ref. 3; cited from earlier work
[2] = target: taxoid binding site of microtubules; experiment: Fluorescent taxoid (Flutax-2) displacement assay; details: 37° C., read-out: equilibrium dissociation constant Kd
Protocol: In addition to the above biological assays, the relative potency of each epothilone analogue was measured by the fluorescent taxoid displacement assay (Andreu, J. M.; Barasoain, I. Biochemistry 2001, 40, 11975–11984). The purpose of these experiments was to compare the equilibrium constants with which microtubules bind at their taxane site the epothilone analogues investigated. The inhibition of the binding of the well-characterized fluorescent taxoid Flutax-2 (Souto, A. A.; et al. Angew. Chem. Int. Ed. Engl. 1995, 34, 2710–2712; Diaz, J. F.; et al. J. Biol. Chem. 2000, 275, 26265–26276; Abal, M.; et al. Cell. Motil. Cytoskeleton 2001, 49, 1–15) to microtubules by each of the epothilone analogues was measured at 37° C. (FIG. 2). […]
FIG. 2 illustrates a chart showing the displacement of the fluorescent taxoid Flutax-2 (50 nM) from microtubule binding sites (50 nM) by competing ligands at 37° C. […] Representative curves for selected epothilone analogues (3, 4, and 8) are presented in this figure to exemplify how the binding affinities were measured for each compound in Table 3.
FIG. 16 illustrates a table disclosing binding affinities of epothilone analogues to the taxoid binding site of microtubules. […] The binding constant of the reference ligand Flutax-2 was measured by centrifugation and fluorescence anisotropy, at each temperature (Diaz, J. F.; et al. J. Biol. Chem. 2000, 275, 26265–26276).

[3] = test system: 1A9 human ovarian carcinoma cells; experiment: Cytotoxicity, 72 h growth inhibition SRB (sulforhodamine-B) assay, parental cell line; format: cell-based
Protocol: The biological activities of the synthesized epothilones were evaluated through cytotoxicity, in vitro tubulin polymerization, and tubulin binding assays. Cytotoxicity was first evaluated in a set of ovarian carcinoma cell lines, including a parental cell line (IA9) and three drug-resistant cell lines, namely the paclitaxel-resistant strains (Giannakakou, P.; et al. J. Biol. Chem. 1997, 272, 17118–17125) IA9/PTX10 and IA9/PTX22 and the epothilone-resistant strain (Giannakakou, P.; et al. Proc. Natl. Acad. Sci. U.S.A. 2000, 97, 2904–2909) 1A9/A8. These resistant cell lines harbor distinct acquired β-tubulin mutations which affect drug-tubulin interaction and result in impaired taxane and epothilone-driven tubulin polymerization. The results of these biological investigations are summarized in Table 1 (Skehan, P.; et al. J. Natl. Cancer Inst. 1990, 82, 1107–1112). […]
(§1) The biological activities of the synthesized epothilones were evaluated through cell growth inhibition assays (cytotoxicity assays). Cytotoxicity was first evaluated in a set of ovarian carcinoma cell lines, including a parental cell line (IA9) and three drug-resistant cell lines, namely the paclitaxel-resistant cell lines IA9/PTX10 and IA9/PTX22 (Giannakakou, P.; et al. J. Biol. Chem. 1997, 272, 17118–17125.) and the epothilone-resistant cell line 1A9/A8 (Giannakakou, P.; et al. Proc. Natl. Acad. Sci. 2000, 97, 2904–2909.). […]

[4] = test system: 1A9 human ovarian carcinoma cells; details: previous data, Tetrahedron 2002, 58, 6413; cited from earlier work
[5] = test system: KB-31 human epidermoid carcinoma cells; experiment: Cytotoxicity, 96 hour drug exposure, protein dye method, parent epidermoid line; format: cell-based; details: KB 3-1, KB-31 cells, 96 hour exposure
Protocol: (§2) The biological activities of the synthesized epothilones were evaluated through cytotoxicity, in vitro tubulin polymerization, and tubulin binding assays. Cytotoxicity was first evaluated in a set of ovarian carcinoma cell lines, including a parental cell line (IA9) and three drug-resistant cell lines, namely the paclitaxel-resistant strains (Giannakakou, P.; et al. J. Biol. Chem. 1997, 272, 17118–17125) IA9/PTX10 and IA9/PTX22 and the epothilone-resistant strain (Giannakakou, P.; et al. Proc. Natl. Acad. Sci. U.S.A. 2000, 97, 2904–2909) 1A9/A8. […]
as §1
(§3) FIG. 15 illustrates a table disclosing the tubulin polymerization potency and cytotoxicity of epothilones 1–8, 10–14, and paclitaxel against human epidermoid cancer cell lines. […] Relative resistance (RR) was calculated by dividing the IC50 value for the resistant cell line by that of the sensitive cell line. […]

[6] = test system: KB-8511 cells; details: previously shown, Tetrahedron 2002, 58, 6413; cited from earlier work
[7] = test system: KB-8511 cells; experiment: Cytotoxicity, 96 hour drug exposure, protein dye method, Pgp-overexpressing line; format: cell-based, human; details: versus KB-31; Table 2
Protocol: as §2, §1, §3

Sequence of porcine tubulin (P02554 whole entry): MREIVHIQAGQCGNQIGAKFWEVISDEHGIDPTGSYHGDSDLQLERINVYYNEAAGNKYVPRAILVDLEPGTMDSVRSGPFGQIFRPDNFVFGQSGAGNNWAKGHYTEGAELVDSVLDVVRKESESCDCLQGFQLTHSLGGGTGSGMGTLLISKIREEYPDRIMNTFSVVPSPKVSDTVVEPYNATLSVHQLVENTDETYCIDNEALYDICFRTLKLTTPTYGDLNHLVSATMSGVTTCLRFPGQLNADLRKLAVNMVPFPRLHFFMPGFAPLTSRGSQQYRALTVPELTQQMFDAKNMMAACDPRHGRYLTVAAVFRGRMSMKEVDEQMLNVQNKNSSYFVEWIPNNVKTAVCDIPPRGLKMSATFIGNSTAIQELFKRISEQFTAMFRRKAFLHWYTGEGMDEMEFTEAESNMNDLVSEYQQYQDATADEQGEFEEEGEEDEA
Sequence of porcine tubulin (P02550 whole entry partner): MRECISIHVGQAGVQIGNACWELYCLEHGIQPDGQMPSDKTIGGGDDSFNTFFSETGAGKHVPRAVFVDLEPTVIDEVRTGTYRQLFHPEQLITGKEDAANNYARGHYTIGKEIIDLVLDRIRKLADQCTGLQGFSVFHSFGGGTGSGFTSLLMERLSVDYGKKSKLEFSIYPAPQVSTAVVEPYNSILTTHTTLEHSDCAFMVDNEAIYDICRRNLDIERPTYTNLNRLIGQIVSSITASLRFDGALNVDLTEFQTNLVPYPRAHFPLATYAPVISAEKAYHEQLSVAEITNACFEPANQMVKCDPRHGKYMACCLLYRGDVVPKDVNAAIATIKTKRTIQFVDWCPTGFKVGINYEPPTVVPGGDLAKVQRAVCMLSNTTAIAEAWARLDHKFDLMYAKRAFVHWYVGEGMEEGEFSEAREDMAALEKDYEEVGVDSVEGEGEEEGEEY

C/C(=C\c1csc(C)n1)[C@@H]1C[C@@H]2O[C@@H]2CCC[C@H](C)[C@H](O)[C@@H](C)C(=O)C(C)(C)[C@@H](O)CC(=O)O1 [Compound 1, epothilone A]
% TP (tubulin polymerization) [1]: 69% | Kd [2]: 34 ± 4 nM

C/C(=C\c1csc(C)n1)[C@@H]1C[C@@H]2O[C@]2(C)CCC[C@H](C)[C@H](O)[C@@H](C)C(=O)C(C)(C)[C@@H](O)CC(=O)O1 [Compound 2, epothilone B]
fold more active than epothilone A (1) ([3]; cis epoxide series, conclusion drawn collectively from all three assays): at least 10 fold | % TP (tubulin polymerization) [1]: 90%

CSc1nc(/C=C(\C)[C@@H]2C[C@@H]3O[C@]3(C)CCC[C@H](C)[C@H](O)[C@@H](C)C(=O)C(C)(C)[C@@H](O)CC(=O)O2)cs1 [Compound 3, 2-(thiomethyl)thiazole epothilone B]
fold more active than the parent epothilone B [4]: about 2 fold | Kd [2]: 0.64 ± 0.24 nM

CC(=Cc1ccc(C)cn1)C1CC2CC2(C)CCCC(C)C(O)C(C)C(=O)C(C)(C)C(O)CC(=O)O1 (centres unmarked) [Compound 8]
IC50 ([3]; Homo sapiens, 1A9 cells, 72 h SRB assay): 1.7 nM | IC50 [5]: 0.9 nM

CC(=O)O[C@H]1C(=O)[C@@]2(C)[C@H]([C@H](OC(=O)c3ccccc3)[C@]3(O)C[C@H](OC(=O)[C@H](O)[C@@H](NC(=O)c4ccccc4)c4ccccc4)C(C)=C1C3(C)C)[C@]1(OC(C)=O)CO[C@@H]1C[C@@H]2O [paclitaxel]
% TP (tubulin polymerization) [1]: 49% | fold less active against KB-8511 cells compared to KB-31 cells [6]: 214 fold | fold less active against KB-8511 cells [7]: 214 fold
